Assay results published in patent publication US20260345596A1, “TREATMENT OF LOCALLY ADVANCED OR METASTATIC UROTHELIAL CARCINOMA WITH ERDAFINITIB” (priority 2023, published 2026).
Entries after “also recorded” stand apart in the source; their conditions may differ.

Assays:
[1] = Protein binding in patients; details: human, in vivo
QTc interval = assay: Cardiac electrophysiology: QTc interval in dose escalation and dose expansion study (187 patients); details: large effect = ≥20 ms
[2] = system: cell lines expressing FGFR genetic alterations; assay: Cell viability of cell lines expressing FGFR genetic alterations; type: cell-based; details: cell lines with FGFR genetic alterations
bacteria = assay: Bacterial reverse mutation (Ames) assay
[3] = system: locally advanced or metastatic urothelial carcinoma with FGFR alterations; assay: Study BLC3001 (NCT03390504, THOR) Cohort 1: efficacy of erdafitinib versus chemotherapy; type: in vivo, human
Protocol: Subjects are assigned to Cohort 1 or Cohort 2 based upon prior treatment with an anti-PD-(L)1 agent. […] Cohort 1 and Cohort 2 are assessed independently.
Each potential subject must satisfy all of the following criteria to be enrolled in the study: • 1. ≥18 years of age (or the legal age of consent in the jurisdiction in which the study is taking place) • 2. […] Minor components (<50% overall) of variant histology such as glandular or squamous differentiation, or evolution to more aggressive phenotypes such as sarcomatoid or micropapillary change are acceptable • 3. Metastatic or surgically unresectable urothelial cancer • 4. Documented progression of disease, defined as any progression that requires a change in treatment, prior to randomization • 5. Prior treatment with an anti-PD-(L)1 agent as monotherapy or as combination therapy; no more than 2 prior lines of systemic treatment. […] These subjects will however still be eligible only for Cohort 1.
Each dose should be taken at approximately the same time each day, with or without food. The study drug is to be taken with approximately 240 mL (8 ounces) of water. The tablets should be swallowed intact and subjects should not attempt to dissolve them in water, tablets must not be broken or chewed. Subjects should avoid consuming grapefruit or Seville oranges due to CYP450 3A4/5 inhibition.
No concomitant treatment is required for these subjects.
Subjects randomized to chemotherapy in Arm 1B (see FIG. 1) receive vinflunine 320 mg/m2 as a 20-minute intravenous infusion once every 3 weeks or docetaxel 75 mg/m2 as a 1-hour intravenous infusion every 3 weeks. Treatment with either agent will be administered until disease progression, intolerable toxicity, withdrawal of consent or decision by the investigator to discontinue treatment.
The primary endpoint is OS. The primary efficacy analysis is based on the Intent-to-Treat (ITT) population that includes all randomized subjects in each cohort. The Kaplan-Meier method is used to estimate the distribution of OS for each treatment group within each cohort. The stratified log-rank test is used to compare survival curves of OS between the 2 treatment arms. The stratification factors to be used in the analysis are as follows: region (North America vs EU vs rest of world), ECOG performance status (0 or 1 vs 2), and disease distribution (presence vs absence of visceral metastases: lung, liver, or bone). Pre-specified strata combining will be implemented when some strata have too few OS events.
The secondary efficacy endpoints are PFS, ORR (achievement of objective response), and Safety. Secondary end points also included DOR, change from baseline in patient reported outcomes (Functional Assessment of Cancer Therapy—Bladder Cancer, Patient-Global Impression of Severity, and the European Quality of Life—5 Dimensions—5 Levels). PFS is analyzed the same as OS. Kaplan-Meier method is used to estimate the distribution of DOR. ORR is analyzed by Cochran-Mantel-Haenszel chi-square test for randomized subjects with measurable disease at baseline. The analyses of the secondary efficacy endpoints include all randomized subjects (ITT subjects) unless otherwise specified. The family-wise type 1 error is strongly controlled at 5% (2-sided) for the secondary efficacy endpoints.
Ophthalmologic examination at baseline included an Amsler grid test, optical coherence tomography scan (OCT), and ophthalmologic evaluation. An Amsler grid test was conducted at every cycle. Repeat OCT was done as clinically indicated based on the Amsler grid test or clinical assessment.
O'Brien-Fleming boundaries were applied, implemented by the Lan-DeMets spending function for a total Type I error of 0.05. […] Stopping for futility was possible if the hazard ratio at the interim analysis exceeded 1.0, considering the totality of the data.
Descriptive subgroup analyses were conducted, but with no adjustment for multiplicity.

With COc1cc(OC)cc(N(CCNC(C)C)c2ccc3ncc(-c4cnn(C)c4)nc3c2)c1 [Erdafitinib, N-(3,5-dimethoxyphenyl)-N′-(1-methylethyl)-N-[3-(1-methyl-1H-pyrazol-4-yl)quinoxalin-6-yl]ethane-1,2-diamine] the fraction unbound [1] was 0.003, the “Effect on QTc interval” value (QTc interval) was “no large effect (i.e., ≥20 ms) on the QTc interval” and the Cell viability [2] was “decreased cell viability in cell lines expressing FGFR genetic alterations, including point mutations, amplifications, and fusions”. For the same compound, the “Dose proportionality of exposure (Cmax and AUC)” value (0.5 to 12 mg, single and repeat once daily dosing) was “increased proportionally across the dose range of 0.5 to 12 mg”, the “Effect of food on exposure” value (high-fat and high-calorie meal) was “No clinically meaningful differences in erdafitinib exposure” and the “Time to steady state” value (once daily dosing) was 2 weeks. For the same compound, the “Effect of age, sex, race, body weight, hepatic or renal impairment on exposure” value (specific populations) was “No clinically meaningful effects on erdafitinib exposure were observed based on age (21-92 years), sex, race (White, Hispanic or Asian), body weight (36-166 kg), mild (Child-Pugh A) or moderate (Child-Pugh B) hepatic impairment, or mild to moderate renal impairment (eGFR 30 to 89 mL/min/1.73 m^2)”, the “Mutagenicity (Ames)” value (bacteria) was “not mutagenic” and the “Disease control rate (CR + PR + SD)” value ([3]; ITT) was 112 (82.4%) n (%). The “Progression-free survival (PFS): number of events (%)” value ([3]; ITT) was 101 (74.3%) number (%), the “Overall Survival (OS): number of events (%)” value ([3]; ITT, 8 mg oral once daily, up-titration to 9 mg, chemotherapy docetaxel or vinflunine) was 77 (56.6%) number (%) and the “Objective response rate, ORR (CR + PR)” value ([3]; ITT, RECIST v1.1, investigator) was 62 (45.6%) n (%). The “OS events (deaths)” value ([3]; ITT, at data cut, ~75% information fraction, count) was 77, the PFS events ([3]; ITT, at data cut, count) was 101 and the “Not evaluable (NE)” value ([3]; ITT, best overall response) was 10 (7.4%) n (%). The “Progressive disease (PD)” value ([3]; ITT, best overall response) was 14 (10.3%) n (%), the “Complete response, CR (%)” value ([3]; ITT, best overall response, RECIST v1.1, investigator) was 9 (6.6%) n (%) and the “Complete response (CR)” value ([3]; ITT, investigator) was 6.6%. For the same compound, the “Partial response (PR)” value ([3]; ITT, investigator) was 39.0%, the “Patients alive at 6 months” value ([3]; estimated, (95% CI)) was 85% (95% CI, 77 to 90) and the “Patients alive at 12 months” value ([3]; estimated, (95% CI)) was 51% (95% CI, 41 to 60). For the same compound, the “Median overall survival (years)” value ([3]; mUC and FGFR alt after prior anti-PD-(L)1) was “about 1 year”, the “Improvement of disease control rate” value ([3]; versus chemotherapy) was “about 39%” and the “Objective response outcome in words” value ([3]; versus chemotherapy) was “approximately a four-fold higher probability of achieving an objective response; also recorded: The superiority of Erdafitinib relative to chemotherapy, in terms of ORR, was established; also recorded: significantly greater for Erdafitinib, with similar DOR; also recorded: generally consistent in the subgroups evaluated”. For the same compound, the “Overall survival outcome in words” value ([3]; versus chemotherapy) was “The superiority of Erdafitinib relative to chemotherapy, in terms of OS, was established; also recorded: generally consistent across clinically meaningful subgroups including age group, FGFR alteration type, baseline ECOG PS, presence/absence of visceral metastases and PD-L1 status; also recorded: significantly prolonged or extended OS compared to chemotherapy; also recorded: consistent across clinically relevant subgroups; also recorded: significantly longer with erdafitinib versus chemotherapy; also recorded: significantly prolonged median overall survival compared with chemotherapy”, the “Progression-free survival outcome in words” value ([3]; versus chemotherapy) was “The superiority of Erdafitinib relative to chemotherapy, in terms of PFS, was established; also recorded: significantly prolonged PFS; also recorded: generally consistent in the subgroups evaluated” and the “Confirmed complete response (CR)” value ([3]; ≥2 consecutive assessments) was 5.1%. For the same compound, the “Confirmed partial response (PR)” value ([3]; ≥2 consecutive assessments) was 30.1%.
